Key:
Experiment in all cases: relative viability (nuclei count vs DMSO), 5 days (fraction); higher = more cells survive
[1] = compound: COC1=CC(c2cc3ccccc3[nH]2)=N/C1=C\c1[nH]c(C)cc1C [Obatoclax] + O=C(CCCCCCC(=O)Nc1ccccc1)NO [Vorinostat] (partner 1 µM)
In short: (§1)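 For relative viability, nuclei counts in treated wells were divided by those in vehicle wells. Lung cancer cell lines had been pin-tool dosed in 1536-well plates the day after seeding and cultured for 5 days, then fixed and stained in one step (final 0.05% Triton X-100, 1% formaldehyde, 1 ug/ml Hoechst) and imaged at 4×. Doses were one drug alone or a fixed anchor-drug dose plus five library-drug doses (not always all listed) in √10 steps, and values are duplicate-plate medians.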

[2] = compound: COC1=CC(c2cc3ccccc3[nH]2)=N/C1=C\c1[nH]c(C)cc1C [Obatoclax] + COc1cccc2cc(-c3nc([C@H]4CC[C@H](C(=O)O)CC4)n4ncnc(N)c34)[nH]c12 [OSI-027] (partner 0.5 µM)
In short: as §1

[3] = compound: COC1=CC(c2cc3ccccc3[nH]2)=N/C1=C\c1[nH]c(C)cc1C [Obatoclax] + CS(=O)(=O)N1CCN(Cc2cc3nc(-c4cccc5[nH]ncc45)nc(N4CCOCC4)c3s2)CC1 [Pictilisib] (partner 1 µM)
In short: as §1

[4] = compound: CC1=CC(=NN1)NC2=CC(=NC(=N2)/C=C/C3=CC=CC=C3)N4CCN(CC4)C + Cc1nc(NC(=O)N2CCC[C@H]2C(N)=O)sc1-c1ccnc(C(C)(C)C(F)(F)F)c1 [Alpelisib] (partner 2 µM)
In short: as §1

## 201T
[1]; first compound 0.01 µM
  relative viability: 0.954
[1]; first compound 0.03162 µM
  relative viability: 0.834
[1]; first compound 0.1 µM
  relative viability: 0.968
[1]; first compound 0.3162 µM
  relative viability: 0.959
[1]; first compound 1 µM
  relative viability: 1.06
[2]; first compound 0.01 µM
  relative viability: 0.762
[2]; first compound 0.03162 µM
  relative viability: 0.786
[2]; first compound 0.1 µM
  relative viability: 0.773
[2]; first compound 0.3162 µM
  relative viability: 0.748
[2]; first compound 1 µM
  relative viability: 0.822
[3]; first compound 0.01 µM
  relative viability: 0.679
[3]; first compound 0.03162 µM
  relative viability: 0.648
[3]; first compound 0.1 µM
  relative viability: 0.741
[3]; first compound 0.3162 µM
  relative viability: 0.678
[3]; first compound 1 µM
  relative viability: 0.687
[4]; first compound 0.08 µM
  relative viability: 1.04
[4]; first compound 0.253 µM
  relative viability: 1.08
[4]; first compound 0.8 µM
  relative viability: 1.01
[4]; first compound 2.53 µM
  relative viability: 0.931
[4]; first compound 8 µM
  relative viability: 0.793

## A549
[3]; first compound 0.01 µM
  relative viability: 0.509
[3]; first compound 0.03162 µM
  relative viability: 0.7
[3]; first compound 0.1 µM
  relative viability: 0.448
[3]; first compound 0.3162 µM
  relative viability: 0.442
[3]; first compound 1 µM
  relative viability: 0.0671
[4]; first compound 0.08 µM
  relative viability: 0.685
[4]; first compound 0.253 µM
  relative viability: 0.684
[4]; first compound 0.8 µM
  relative viability: 0.398
[4]; first compound 2.53 µM
  relative viability: 0.0413
[4]; first compound 8 µM
  relative viability: 0.0242

## A-427
[1]; first compound 0.01 µM
  relative viability: 0.839
[1]; first compound 0.03162 µM
  relative viability: 0.836
[1]; first compound 0.1 µM
  relative viability: 0.741
[1]; first compound 0.3162 µM
  relative viability: 0.835
[1]; first compound 1 µM
  relative viability: 0.664
[2]; first compound 0.01 µM
  relative viability: 0.513
[2]; first compound 0.03162 µM
  relative viability: 0.462
[2]; first compound 0.1 µM
  relative viability: 0.49
[2]; first compound 0.3162 µM
  relative viability: 0.418
[2]; first compound 1 µM
  relative viability: 0.399
[3]; first compound 0.01 µM
  relative viability: 0.727
[3]; first compound 0.03162 µM
  relative viability: 0.698
[3]; first compound 0.1 µM
  relative viability: 0.593
[3]; first compound 0.3162 µM
  relative viability: 0.719
[3]; first compound 1 µM
  relative viability: 0.615
[4]; first compound 0.08 µM
  relative viability: 1.08
[4]; first compound 0.253 µM
  relative viability: 1.15
[4]; first compound 0.8 µM
  relative viability: 1.07
[4]; first compound 2.53 µM
  relative viability: 0.716
[4]; first compound 8 µM
  relative viability: 0.133

## ABC-1
[1]; first compound 0.01 µM
  relative viability: 1.25
[1]; first compound 0.03162 µM
  relative viability: 1.08
[1]; first compound 0.1 µM
  relative viability: 0.869
[1]; first compound 0.3162 µM
  relative viability: 1.17
[1]; first compound 1 µM
  relative viability: 0.933
[2]; first compound 0.01 µM
  relative viability: 0.576
[2]; first compound 0.03162 µM
  relative viability: 0.571
[2]; first compound 0.1 µM
  relative viability: 0.424
[2]; first compound 0.3162 µM
  relative viability: 0.373
[2]; first compound 1 µM
  relative viability: 0.276
[3]; first compound 0.01 µM
  relative viability: 0.72
[3]; first compound 0.03162 µM
  relative viability: 0.929
[3]; first compound 0.1 µM
  relative viability: 0.737
[3]; first compound 0.3162 µM
  relative viability: 0.468
[3]; first compound 1 µM
  relative viability: 0.26
[4]; first compound 0.08 µM
  relative viability: 1.01
[4]; first compound 0.253 µM
  relative viability: 1.09
[4]; first compound 0.8 µM
  relative viability: 1.02
[4]; first compound 2.53 µM
  relative viability: 0.855
[4]; first compound 8 µM
  relative viability: 0.22

## BEN
[1]; first compound 0.01 µM
  relative viability: 0.594
[1]; first compound 0.03162 µM
  relative viability: 0.486
[1]; first compound 0.1 µM
  relative viability: 0.521
[1]; first compound 0.3162 µM
  relative viability: 0.556
[1]; first compound 1 µM
  relative viability: 0.621
[2]; first compound 0.01 µM
  relative viability: 0.28
[2]; first compound 0.03162 µM
  relative viability: 0.297
[2]; first compound 0.3162 µM
  relative viability: 0.283
[2]; first compound 1 µM
  relative viability: 0.32
[3]; first compound 0.01 µM
  relative viability: 0.534
[3]; first compound 0.03162 µM
  relative viability: 0.57
[3]; first compound 0.1 µM
  relative viability: 0.447
[3]; first compound 0.3162 µM
  relative viability: 0.54
[3]; first compound 1 µM
  relative viability: 0.587
[4]; first compound 0.08 µM
  relative viability: 1.06
[4]; first compound 0.253 µM
  relative viability: 1.1
[4]; first compound 0.8 µM
  relative viability: 0.986
[4]; first compound 2.53 µM
  relative viability: 0.865
[4]; first compound 8 µM
  relative viability: 0.186

## CAL-12T
[1]; first compound 0.01 µM
  relative viability: 0.847
[1]; first compound 0.03162 µM
  relative viability: 0.883
[1]; first compound 0.1 µM
  relative viability: 1.05
[1]; first compound 0.3162 µM
  relative viability: 0.521
[1]; first compound 1 µM
  relative viability: 0.142
[2]; first compound 0.01 µM
  relative viability: 0.62
[2]; first compound 0.03162 µM
  relative viability: 0.609
[2]; first compound 0.1 µM
  relative viability: 0.829
[2]; first compound 0.3162 µM
  relative viability: 0.138
[2]; first compound 1 µM
  relative viability: 0.128
[3]; first compound 0.01 µM
  relative viability: 0.395
[3]; first compound 0.03162 µM
  relative viability: 0.472
[3]; first compound 0.1 µM
  relative viability: 0.396
[3]; first compound 0.3162 µM
  relative viability: 0.223
[3]; first compound 1 µM
  relative viability: 0.395
[4]; first compound 0.08 µM
  relative viability: 1.04
[4]; first compound 0.253 µM
  relative viability: 1.21
[4]; first compound 0.8 µM
  relative viability: 1.24
[4]; first compound 2.53 µM
  relative viability: 0.339
[4]; first compound 8 µM
  relative viability: 0.121

## COR-L23
[1]; first compound 0.01 µM
  relative viability: 0.562
[1]; first compound 0.03162 µM
  relative viability: 0.507
[1]; first compound 0.1 µM
  relative viability: 0.42
[1]; first compound 0.3162 µM
  relative viability: 0.166
[1]; first compound 1 µM
  relative viability: 0.18
[2]; first compound 0.01 µM
  relative viability: 0.715
[2]; first compound 0.03162 µM
  relative viability: 0.853
[2]; first compound 0.1 µM
  relative viability: 0.786
[2]; first compound 0.3162 µM
  relative viability: 0.405
[2]; first compound 1 µM
  relative viability: 0.177
[3]; first compound 0.01 µM
  relative viability: 0.792
[3]; first compound 0.03162 µM
  relative viability: 0.946
[3]; first compound 0.1 µM
  relative viability: 0.737
[3]; first compound 0.3162 µM
  relative viability: 0.252
[3]; first compound 1 µM
  relative viability: 0.154
[4]; first compound 0.08 µM
  relative viability: 0.751
[4]; first compound 0.253 µM
  relative viability: 0.722
[4]; first compound 0.8 µM
  relative viability: 0.57
[4]; first compound 2.53 µM
  relative viability: 0.178
[4]; first compound 8 µM
  relative viability: 0.0573

## COR-L 105
[1]; first compound 0.01 µM
  relative viability: 0.837
[1]; first compound 0.03162 µM
  relative viability: 0.905
[1]; first compound 0.1 µM
  relative viability: 0.885
[1]; first compound 0.3162 µM
  relative viability: 0.725
[1]; first compound 1 µM
  relative viability: 0.445
[2]; first compound 0.01 µM
  relative viability: 0.741
[2]; first compound 0.03162 µM
  relative viability: 0.906
[2]; first compound 0.1 µM
  relative viability: 0.803
[2]; first compound 0.3162 µM
  relative viability: 0.518
[2]; first compound 1 µM
  relative viability: 0.301
[3]; first compound 0.01 µM
  relative viability: 0.407
[3]; first compound 0.03162 µM
  relative viability: 0.47
[3]; first compound 0.1 µM
  relative viability: 0.495
[3]; first compound 0.3162 µM
  relative viability: 0.328
[3]; first compound 1 µM
  relative viability: 0.286
[4]; first compound 0.08 µM
  relative viability: 0.946
[4]; first compound 0.253 µM
  relative viability: 1.08
[4]; first compound 0.8 µM
  relative viability: 0.967
[4]; first compound 2.53 µM
  relative viability: 0.605
[4]; first compound 8 µM
  relative viability: 0.186

## Calu-6
[3]; first compound 0.01 µM
  relative viability: 0.91
[3]; first compound 0.03162 µM
  relative viability: 0.963
[3]; first compound 0.1 µM
  relative viability: 0.731
[3]; first compound 0.3162 µM
  relative viability: 0.491
[3]; first compound 1 µM
  relative viability: 0.105
[4]; first compound 0.08 µM
  relative viability: 1.01
[4]; first compound 0.253 µM
  relative viability: 0.973
[4]; first compound 0.8 µM
  relative viability: 0.661
[4]; first compound 2.53 µM
  relative viability: 0.134
[4]; first compound 8 µM
  relative viability: 0.117
